Experimental data reported in patent publication US10798942B2, “Abiotic stress tolerance” (SYNGENTA PARTICIPATIONS AG, priority 2016, dated 2020).

Test system: rice plants
Assay: Multi-year analysis for 2015-2016 of field trials (17 trials)
Assay type: in vivo, Oryza sativa L.
Conditions: 2015-2016, 17 trials; for Thousand grain weight (g/1000 seed): UTC 17.01; for Empty spikelets (number per 12 rice hills): UTC 5636; for Yield at 14% MC (kg/ha): UTC 6318
Description: Rice (Oryza sativa L.) of the local varieties ADT43, ADT45 and NK5251 were mechanically transplanted at four plants per hill with a plant spacing of 16 cm and a row spacing of 30 cm. All trials were performed in good level of water management. Fertilizer was applied in accordance with the best local practice across the trial area. Commercial treated seeds (no neonicotinoids as seed treatments) were used. Weed control was according to the best local practice in order to provide excellent weed control. Foliar fungicides and insecticides were applied according to common practice (no products that contain neonicotinoids or strobilurins). The trial design was a randomized bloc design. Plot size was 40 m^2 (4 m width [12 rows] by 10 m row length). Each trial had four replicates. In total, eleven trials were conducted. The compound of formula (Ia) was applied at a rate of 10 g ai/ha with small-plot hand-held boom sprayer. Application of the compound was as broadcast foliar spray in close proximity to leaf/canopy surface (25-40 cm distance from the crop). The used spray volumes were between 250 L/ha and 500 L/ha. Application was done either at panicle initiation (BBCH 30), at panicle formation (BBCH 32), at spikelet differentiation (BBCH 35), at meiosis (BBCH 39) or at heading (BBCH 51). In some experiments, the compound was applied twice (2×10 g ai/ha) at consecutive growth stages (i.e., BBCH 30+32, BBCH 32+35, BBCH 35+39, and BBCH 39+51). Tolerance to heat stress was assessed by measuring the following yield components: number of panicles per area, number of grains per panicle, percentage of ripened (filled) grains, number of tillers per area, percentage of productive tillers, grain yield per area at 14% moisture and thousand grain weight (TGVV). Further trials were conducted in the Tamil Nadu rice production area (India) in 2016 using the protocol as described above using rice variety ADT45, with treatment timings of panicle initiation (BBCH 30), panicle formation (BBCH 32), spikelet differentiation (BBCH 35) and meiosis (BBCH 39) only. The compound of formula (Ia) was applied at a rate of 10 g Al/ha. Grain yield was measured at 14% moisture content (MC).

In the case of `COc1cccc(Nc2nc(F)nc3[nH]cnc23)c1` [formula (Ia)], the “Empty spikelets, % change compared to UTC” value (“Empty spikelets, % change” for short) (BBCH 30 at application) is reported as −12.5%, the “Thousand grain weight, % change compared to UTC” value (“Thousand grain weight, % change” for short) (BBCH 30 at application) is reported as “+1.3%” and the “Yield at 14% MC, % change compared to UTC” value (shortened to “Yield at 14% MC, % change”) (BBCH 30 at application) is reported as “+4.1%”. For the same molecule, the “Thousand grain weight (g/1000 seed)” value (BBCH 30 at application) was 17.24 g/1000 seed, the “Empty spikelets (number per 12 rice hills)” value (BBCH 30 at application) was 4927 number per 12 rice hills and the “Yield at 14% MC (kg/ha)” value (BBCH 30 at application) was 6583 kg/ha. The “Empty spikelets, % change” value (BBCH 32 at application) was −9.2%, the “Thousand grain weight, % change” value (BBCH 32 at application) was “+1.4%” and the “Yield at 14% MC, % change” value (BBCH 32 at application) was “+6.5%”. For the same molecule, the “Thousand grain weight (g/1000 seed)” value (BBCH 32 at application) was 17.25 g/1000 seed, the “Empty spikelets (number per 12 rice hills)” value (BBCH 32 at application) was 5115 number per 12 rice hills and the “Yield at 14% MC (kg/ha)” value (BBCH 32 at application) was 6727 kg/ha. The “Empty spikelets, % change” value (BBCH 35 at application) was −7.6%, the “Thousand grain weight, % change” value (BBCH 35 at application) was “+1.3%” and the “Yield at 14% MC, % change” value (BBCH 35 at application) was “+6.3%”. The “Thousand grain weight (g/1000 seed)” value (BBCH 35 at application) was 17.23 g/1000 seed, the “Empty spikelets (number per 12 rice hills)” value (BBCH 35 at application) was 5206 number per 12 rice hills and the “Yield at 14% MC (kg/ha)” value (BBCH 35 at application) was 6713 kg/ha. For the same molecule, the “Empty spikelets, % change” value (BBCH 39 at application) was −8.3%, the “Thousand grain weight, % change” value (BBCH 39 at application) was “+1.4%” and the “Yield at 14% MC, % change” value (BBCH 39 at application) was “+5.2%”. For the same molecule, the “Thousand grain weight (g/1000 seed)” value (BBCH 39 at application) was 17.25 g/1000 seed, the “Empty spikelets (number per 12 rice hills)” value (BBCH 39 at application) was 5170 number per 12 rice hills and the “Yield at 14% MC (kg/ha)” value (BBCH 39 at application) was 6643 kg/ha.
